The record followed here is ChEMBL document CHEMBL5150055, “B-cell Lymphoma 6 Inhibitors: Current Advances and Prospects of Drug Development for Diffuse Large B-cell Lymphomas” (J Med Chem, 2022).

pIC50, pKd: −log10 of the molar value. ≈ marks a conversion by molar mass, not a printed value.

Series [1] addresses T1, B-cell lymphoma 6 protein (Homo sapiens, UniProt P41182). Put plainly: Binding affinity to BCL6 (unknown origin) assessed as ratio of Kinact/Ki incubated for 4 hrs by IPC assay.
Series [2] addresses T1, B-cell lymphoma 6 protein. Put plainly: Binding affinity to BCL6 BTB domain (unknown origin) by SPR analysis.
Series [3] deals with T1, B-cell lymphoma 6 protein. Put plainly: Inhibition of BCL6 (unknown origin) by HTRF assay.
Another series relates to SUD4. Put plainly: Antitumor activity against BCL6 dependent human SU-DHL-4 cells assessed as cell growth inhibition. Format: functional, cell-based.
For another series, the system named is L02. Put plainly: Antitumor activity against human L02 cells assessed as cell growth inhibition. Format: functional, cell-based.
Another series deals with SU-DHL-6. Put plainly: Antitumor activity against BCL6 dependent human SU-DHL-6 cells assessed as cell growth inhibition. Format: functional, cell-based.
In series [4] the test system is OCI-Ly7. Put plainly: Antitumor activity against BCL6 dependent human OCILY7 cells assessed as cell growth inhibition. The format is functional, cell-based.
The next series relates to Farage. Put plainly: Antitumor activity against BCL6 dependent human Farage cells assessed as cell growth inhibition. The format is functional, cell-based.
A further series has as its system DOHH-2. Put plainly: Antitumor activity against BCL6 dependent human DOHH-2 cells assessed as cell growth inhibition. The format is functional, cell-based.
Series [5] concerns the target T1, B-cell lymphoma 6 protein. Put plainly: Binding affinity to BCL6 BTB domain (5 to 129 residues) (unknown origin) expressed in Escherichia coli using 5-TAMRA-RSEIISTAPSSWVVPGP as substrate incubated for 1 hrs by FP assay.
The target in series [6] is T1, B-cell lymphoma 6 protein. Put plainly: Binding affinity to BCL6 BTB domain (5 to 129 residues) (unknown origin) expressed in Escherichia coli by SPR analysis.
Series [7] has as its target T1, B-cell lymphoma 6 protein. Put plainly: Inhibition of D2-SMRT peptide binding to human BCL6 BTB-POZ domain incubated for 60 mins by TR-FRET assay.
The target of series [8] is T1, B-cell lymphoma 6 protein. Put plainly: Displacement AF647-BCOR peptide from human BCL6 BTB-POZ domain incubated for 60 mins by TR-FRET assay.
The target in series [9] is T1, B-cell lymphoma 6 protein. Put plainly: Displacement AF647-NCOR peptide from human BCL6 BTB-POZ domain incubated for 60 mins by TR-FRET assay.
Series [10] addresses T1, B-cell lymphoma 6 protein. Put plainly: Binding affinity to wild type full length BCL6 BTB domain having SMRT BBD motif sequence (unknown origin) transfected in human HEK293 cells by electrophoretic mobility shift assay. The format is cell-based.
Series [11] can be described thus: Binding affinity to wild type full length BCL6 BTB domain SMRT BBD motif sequence mutant (unknown origin) transfected in human HEK293 cells by electrophoretic mobility shift assay. The format is cell-based.
The next series relates to OCI-Ly1. Put plainly: Antiproliferative activity against human OCI-Ly1 cells assessed as growth inhbition by measuring metabolic viability incubated for 48 hrs by fluorometric resazurin reduction method. Format: functional, cell-based. The conditions noted are these: OCI-Ly1, 48 h.
In series [12] the test system is OCI-Ly7. Put plainly: Antiproliferative activity against human OCILY7 cells assessed as growth inhbition by measuring metabolic viability incubated for 48 hrs by fluorometric resazurin reduction method. The format is functional, cell-based. The settings on record: OCI-Ly7, 48 h.
A further series relates to OCI-Ly10. Put plainly: Antiproliferative activity against human OCI-Ly10 cells assessed as growth inhbition by measuring metabolic viability incubated for 48 hrs by fluorometric resazurin reduction method. The format is functional, cell-based. The conditions noted are these: OCI-Ly10, 48 h.
The nature of series [13]: Aqueous solubility of compound. The format is physicochemical. The conditions noted are these: buffer.

`CCC(=O)NCCN1C(=O)C(CCCCNC(=O)CCl)Oc2cc(Nc3cc(OC4CCOCC4)c([N+](=O)[O-])cc3Cl)ccc21` (stereo unspecified): the Ratio in series [1] was 1.9 10^4/M/s.
As for `C[C@@H]1CN(c2ncc(F)c(Nc3ccc(NC(=O)c4cccc(Br)n4)cc3)n2)C[C@H](C)N1`, the pKd is 5.79 in [2] and 5.86 in [3]. For the same compound, the pIC50 in the series with SUD4 was 5.86; with L02, 4.67; in the series with SU-DHL-6, 5.96; in the series on OCI-Ly7 [4], 5.96; with Farage it was 5.96; with DOHH-2 it was 5.96.
As to `Cc1cc(C)n(-c2ncc(Cl)c(Nc3ccc(Cl)cc3)n2)n1`, the pKd was 4.74 in [5] and 4.70 in series [6].
Turning to `Cc1ncccc1[C@H]1C[C@@H](c2cccc3nc(N)ccc23)Nc2c(F)cnn21`, the negative logarithm of the IC50 (pIC50) in series [7] was 8.00; in series [8] it was 7.60; in series [9], 7.60.
Take `O=C(CCl)NCCCCn1c(=O)[nH]c2ccc(Nc3ccc([N+](=O)[O-])cc3Cl)cc21`: in series [1], the Ratio is 3 10^1/M/s.
For H-HHHHHHPTATHAGLVATVKEAGRSIHEI-OH, the pKd in series [10] is 4.99; in series [11], 3.83. The pIC50 in the series on OCI-Ly1, with OCI-Ly7 [12] and in the series with OCI-Ly10 was 4.95 throughout.
In series [13], `C[C@@H](NC(=O)COC(=O)CCN1C(=O)/C(=C2/C(=O)Nc3ccc(Cl)cc32)SC1=S)C(=O)N[C@@H](CCC(=O)O)C(=O)O` had a solubility of 0.218 µg/mL (≈ 0.348 µM).
